Reference: patent US12194230B2, “Methods, devices and systems for pulmonary delivery of active agents” (priority 2014, dated 2025)
“And” between values parts separate entries of the source, which are not always exact repeats. Identical values can stand only once. Like-named read-outs stand apart in the source and are kept apart here.

Legend:
[1] = PK/PD study: plasma Δ^9-THC levels after single-dose inhalation of Cannabis flos with the metered-dose inhaler
[2] = cited from earlier work; for mean Cmax increase per mg Δ^9-THC: Huestis et al.
[3] = system: patients suffering from chronic neuropathic pain; details: cited from earlier work; for reduction of pain intensity: vaporized 10.3 mg total available Δ^9-THC in two sessions
[4] = system: patients suffering from neuropathic pain; experiment: Adverse effects, blood pressure and heart rate after single-dose inhalation (PK/PD study); type: in vivo, human; details: for heart rate: baseline 71±12, P=0.873; for mean diastolic blood pressure: baseline 82±9, P=0.410; for mean systolic blood pressure: baseline 133±13, P=0.068; for adverse effects (overall): single inhalation, 8 patients
Description: (§1) Pain intensity reduction was assessed as a therapeutic effect by asking participants to indicate the intensity of their current pain on a 100 mm visual analog scale (VAS) between 0 (no pain) and 100 (worst possible pain) at baseline (prior to the inhalation) and at 20 and 90 minutes following the pulmonary delivery of the pharmaceutically active agent from cannabis. Adverse effects, in the form of psychotropic symptoms, were recorded at 5, 15, 30, 60 and 120 minutes post pulmonary delivery, along with those spontaneously reported by the participants. Adverse effects were evaluated according to standardized criteria in terms of severity, frequency, duration and relationship to the study's active agent. Adverse effects were graded using the NIH Division of AIDS table for scoring severity of adult adverse experiences. Blood pressure and pulse rate were also recorded before, during and after the pulmonary delivery.
(§2) Results are reported herein as mean values±1 standard deviation (±SD). For each one of the measured effects (VAS pain intensity, systolic and diastolic blood pressure, heart rate and satisfaction score), the mean and 95% confidence interval (CI) at different time points was plotted. Differences between VAS pain intensity values and satisfaction scores, before and after inhalation, were tested by two-tailed paired Student t-test. Blood pressure and heart rate values were compared among different time points by one-way ANOVA. P-values<0.05 were accepted as significant. All statistical analyses were performed using Minitab Statistical Software, version 16.

[5] = system: patients suffering from neuropathic pain; experiment: VAS pain intensity after single-dose inhalation (PK/PD study); type: in vivo, human
Description: The study was used to further evaluate the pharmacodynamic effect of pulmonary delivery of Δ^9-THC on pain reduction from baseline using a 10 cm visual analog scale (VAS) pain scale (0 being no pain; and 10 being worst possible pain); for monitoring adverse effects, blood pressure and heart rate, and for estimating the degree of satisfaction with the use of the MDI on a 0-10 scale.
as §1, §2

[6] = single inhalation, 3.08±0.02 mg total available Δ^9-THC

For `CCCCCc1cc(O)c2c(c1)OC(C)(C)[C@@H]1CCC(CO)=C[C@@H]21` [11-OH-THC, 11-hydroxy Δ^9-THC], the “plasma levels of the active metabolite” value ([1]; blood sampling 0-120 minutes after inhalation) was “No measurable plasma levels”.
For `CCCCCc1cc(O)c2c(c1)OC(C)(C)[C@@H]1CCC(C)=C[C@@H]21` [Δ^9-THC, Δ9-tetrahydrocannabinol], the “increase of Cmax per mg of THC” value ([2]; Volcano vaporizer, Abrams et al. 2007, 2011) is listed as 6.1 to 9.0 ng/mL/mg, the “mean Cmax increase per mg Δ^9-THC” value ([2]; after the first puff of a 1.75% Δ^9-THC cigarette) is listed as 3.54 ng/ml per mg and the “mean Cmax increase per mg Δ^9-THC” value ([2]; after the first puff of a 3.55% Δ^9-THC cigarette) is listed as 4.28 ng/ml per mg. The “plasma Cmax per mg of Δ^9-THC administered” value ([2]; intravenous administration, D'Souza et al. 2004) was 32.8 ng Δ^9-THC/ml plasma and 23.8 ng Δ^9-THC/ml plasma, the “inter-individual variability (CV) of Cmax” value ([2]; oral administration) was 42-115% and the “inter-individual variability (CV) of Cmax” value ([2]; oromucosal route of delivery) was 59-67%. For the same compound, the “increase of Cmax per mg of THC” value ([2]; regular smoking cigarettes, Ohlsson, Hunault, Huestis) was 0.6 to 4.6 ng/mL/mg, the “inter-individual variability (CV) of Cmax” value ([2]; smoking cigarettes) was 32-115% and the “time of peak plasma concentrations” value ([2]; smoking products of cannabis) was 1 to 3 min. The bioavailability ([2]; smoking route, listed as THC) was 2-56% and 2 to 56%, the “first onset of effects” value ([2]; smoking) was “about 7 minutes” and the “inter-individual variability (CV) of Cmax” value ([2]; vaporizer) was 47-85%. For the same compound, the “mean Cmax elevation” value ([3]; Ware et al. 2010, single smoke inhalation of 25±1 mg cannabis with 9.4% Δ^9-THC (2.35 mg), three times a day for 5 days) was 45 ng/mL, the “decrease in average daily pain intensity” value ([3]; Ware et al. 2010, single smoke inhalation of 25±1 mg cannabis with 9.4% Δ^9-THC, three times a day for 5 days, compared to placebo) was 11.4% and the “reduction of neuropathic pain (plateau, ceiling effect)” value ([3]; Wilsey et al. 2008, smoking 19 mg or 34 mg total available Δ^9-THC divided to 3 doses) was 45%. For the same compound, the “analgesic response compared with the 10.3 mg dose” value ([3]; Wilsey et al. 2013, THC dose increased to 28.2 mg) was “equianalgesic response”, the “reduction of pain intensity” value ([3]; Wilsey et al. 2013, 3 hours) was 31% and the “reduction of pain intensity” value ([3]; Wilsey et al. 2013, 5 hours) was 25%. For the same compound, the heart rate ([4]; 30 minutes post-inhalation) was 72±11 bpm, the “mean diastolic blood pressure” value ([4]; 30 minutes post-inhalation) was 75±10 mm Hg and the “mean systolic blood pressure” value ([4]; 30 minutes post-inhalation) was 122±10 mm Hg. The heart rate ([4]; 90 minutes post-inhalation) was 69±13 bpm, the “mean diastolic blood pressure” value ([4]; 90 minutes post-inhalation) was 81±12 mm Hg and the “mean systolic blood pressure” value ([4]; 90 minutes post-inhalation) was 121±11 mm Hg. For the same compound, the “time to full recovery from light headedness” value ([4]; all the other patients) was at most 30 min, the “patients experiencing light headedness” value ([4]; first 10 minutes following inhalation, seven of eight patients) was 87.5% and the “adverse effects (overall)” value [4] was “minimal, reversible and well tolerated”. The “adverse effects (overall)” value ([4]; listed as THC) was “minimal, reversible and receded rapidly”, the “time to full recovery from light headedness” value ([4]; three patients) was at most 15 min and the “decrease of VAS pain intensity from baseline (difference)” value ([5]; 20 minutes after inhalation, baseline 7.5±1.4, 95% CI 2.1-4.9, P=0.001) was 3.4 points. For the same compound, the “VAS pain intensity versus baseline” value ([5]; 90 minutes post-dosing) was “virtually identical results as at baseline”, the “reduction of pain intensity” value [5, 6] was 45% and the “time within which the pain reduction reversed” value [5, 6] was at most 90 min. For the same compound, the “inter-individual variability (CV) of peak plasma THC concentration (Cmax)” value ([1]; MDI device) was 25.3%, the “increase of Cmax per mg of THC available in the cannabis used (mean)” value ([1]; pulmonary delivery with the MDI device) was 12.3 ng/mL/mg and the “time of first detection in blood sample post-inhalation” value ([1]; six patients without residual plasma THC at baseline) was 1 min.
